Laboratory results as given in ChEMBL document CHEMBL4393696, “5-Arylisothiazol-3(2H)-one-1,(1)-(di)oxides: A new class of selective tumor-associated carbonic anhydrases (hCA IX and XII) inhibitors” (Eur J Med Chem, 2019).

Tests used:
Carbonic anhydrase 9 = Carbonic anhydrase 9 (Homo sapiens, UniProt Q16790); assay: Inhibition of human carbonic anhydrase 9 assessed as inhibitory constant preincubated for 15 mins by stopped-flow CO2 hydration assay
Carbonic anhydrase 1 = Carbonic anhydrase 1 (Homo sapiens, UniProt P00915); assay: Inhibition of human carbonic anhydrase 1 assessed as inhibitory constant preincubated for 15 mins by stopped-flow CO2 hydration assay
Carbonic anhydrase 1, sequence (P00915 whole entry): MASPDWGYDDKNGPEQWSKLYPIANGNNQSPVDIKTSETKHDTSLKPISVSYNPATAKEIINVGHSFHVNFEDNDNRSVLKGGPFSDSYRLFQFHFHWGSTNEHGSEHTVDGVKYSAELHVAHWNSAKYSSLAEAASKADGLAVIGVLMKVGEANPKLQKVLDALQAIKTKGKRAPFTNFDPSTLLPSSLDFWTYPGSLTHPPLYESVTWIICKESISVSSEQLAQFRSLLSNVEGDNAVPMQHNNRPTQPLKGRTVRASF

Carbonic anhydrase 2 = Carbonic anhydrase 2 (Homo sapiens, UniProt P00918); assay: Inhibition of human carbonic anhydrase 2 assessed as inhibitory constant preincubated for 15 mins by stopped-flow CO2 hydration assay
Carbonic anhydrase 12 = Carbonic anhydrase 12 (Homo sapiens, UniProt O43570); assay: Inhibition of human carbonic anhydrase 12 assessed as inhibitory constant preincubated for 15 mins by stopped-flow CO2 hydration assay
Carbonic anhydrase 12, sequence (O43570 whole entry): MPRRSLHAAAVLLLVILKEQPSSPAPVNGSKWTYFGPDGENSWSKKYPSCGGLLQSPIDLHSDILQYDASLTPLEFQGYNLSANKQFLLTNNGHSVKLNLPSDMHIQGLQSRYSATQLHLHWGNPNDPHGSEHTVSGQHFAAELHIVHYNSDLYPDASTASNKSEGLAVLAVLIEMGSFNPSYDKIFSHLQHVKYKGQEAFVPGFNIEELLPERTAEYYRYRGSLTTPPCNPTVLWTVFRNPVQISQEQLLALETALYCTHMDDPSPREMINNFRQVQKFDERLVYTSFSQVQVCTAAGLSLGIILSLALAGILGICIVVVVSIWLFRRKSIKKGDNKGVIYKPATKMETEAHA

Ki (Carbonic anhydrase 9) [nM] | Ki (Carbonic anhydrase 1) [nM] | Ki (Carbonic anhydrase 2) [nM] | Ki (Carbonic anhydrase 12) [nM] | Structure (SMILES)
28.4 | > 10000 | 1570 |  | CC(C)(C)N1C(=O)C=C(c2ccccc2)S1(=O)=O
347 | > 10000 | > 10000 |  | CC(C)(C)N1C(=O)C=C(c2cc3ccccc3n2S(=O)(=O)c2ccccc2)S1(=O)=O
45.5 | > 10000 | > 10000 |  | O=c1cc(-c2ccccc2)[s+]([O-])[nH]1 (stereo not drawn)
4.5 | > 10000 | > 10000 |  | CC(C)(C)n1c(=O)cc(-c2ccccc2)[s+]1[O-] (stereo not drawn)
101 | > 10000 | > 10000 |  | O=c1cc(-c2cn(S(=O)(=O)c3ccccc3)c3ccccc23)[s+]([O-])[nH]1 (stereo not drawn)
40.3 | > 10000 | > 10000 |  | O=C1C=C(c2ccccc2)S(=O)(=O)N1
47.7 | > 10000 | > 10000 |  | CC(C)(C)OC(=O)n1c(-c2cc(=O)n(C(C)(C)C)[s+]2[O-])cc2ccccc21 (stereo not drawn)
227 |  | > 10000 |  | CC(C)(C)N1C(=O)C=C(Cl)S1(=O)=O
8.8 | > 10000 | 2110 |  | CC(C)(C)n1c(=O)cc(-c2cn(S(=O)(=O)c3ccccc3)c3ccccc23)[s+]1[O-] (stereo not drawn)
4.3 | > 10000 | 81.8 |  | CC(C)(C)N1C(=O)C=C(c2cn(S(=O)(=O)c3ccccc3)c3ccccc23)S1(=O)=O
98.5 |  | > 10000 |  | CC(C)(C)n1sc(Cl)cc1=O
133 |  | > 10000 |  | CC(C)(C)n1c(=O)cc(-c2cc3ccccc3s2)[s+]1[O-] (stereo not drawn)
16 |  | > 10000 |  | CC(C)(C)n1c(=O)cc(-c2ccc3ccccc3c2)[s+]1[O-] (stereo not drawn)
48.6 | > 10000 | > 10000 |  | CC(C)(C)n1c(=O)cc(-c2cccs2)[s+]1[O-] (stereo not drawn)
40.3 | > 10000 | > 10000 |  | CC(C)(C)n1c(=O)cc(-c2cc3ccccc3n2S(=O)(=O)c2ccccc2)[s+]1[O-] (stereo not drawn)
221 | > 10000 | > 10000 |  | CC(C)(C)N1C(=O)C=C(c2cccs2)S1(=O)=O
237 | > 10000 | > 10000 |  | COc1cc(-c2cc(=O)n(C(C)(C)C)[s+]2[O-])cc(OC)c1OC (stereo not drawn)
251 |  | > 10000 |  | CC(C)(C)n1c(=O)cc(-c2cc3ccccc3o2)[s+]1[O-] (stereo not drawn)
171 | 454 | > 10000 | 53.6 | CC(C)(C)n1c(=O)cc(Cl)[s+]1[O-] (stereo not drawn)
